This note sets out measurements from patent US20060275268A1, “COMPOSITIONS FOR ACTIVATING THE INFILTRATION ACTIVITY OF DENDRITIC CELLS, AND IMMUNOPOTENTIATING AGENTS” (priority 2003, published 2006).

Assay [1] relates to MMP-9 mRNA. Nature of the assay: MMP-9 mRNA level in mature dendritic cells after induction of differentiation. It is filed as cell-based, human. Particulars: medium with 1 μM for three days, or 5 μM for one day then 1 μM for two days, FIG. 9.
Experimental: Total RNA was isolated from the cultured cells (1×10^6 cells) using TRIzol reagent (Life Technologies). Each RNA sample (2 μg) was converted to cDNA in 50 μl of reaction mixture containing 75 mM KCl, 50 mM Tris-HCl (pH 8.3), 3 mM MgCl2, 10 mM dithiothreitol, 0.5 mM each of dNTPs, 2 μM random primer, and 1000 U of TaqMan Reverse Transcription reagent. Each cDNA (10 ng) was amplified in triplicate using an SYBR-Green PCR assay kit, and sequenced using an ABI PRISM 7900HT sequence Detection System. PCR was carried out by incubation at 50° C. for 2 minutes and then at 95° C. for 15 minutes, followed by 15 cycles of denaturation at 95° C., 30 cycles of annealing at 60° C., and extension at 72° C. for 1 minute. […] The mature dendritic cells obtained in Example 1 were cultured in the culture medium supplemented with 1 μM all-trans retinoic acid for three days or in the culture medium supplemented with 5 μM all-trans retinoic acid for one day. The cells were further cultured in the culture medium supplemented with 1 μM all-trans retinoic acid for two days, to induce the differentiation of the dendritic cells. After the induction of the differentiation, MMP-9 mRNA level in the cells was determined.
Assay [2] has as its system dendritic cells. Nature of the assay: Infiltration activity of dendritic cells by the Transwell Chamber method (Matrigel). Conditions: for infiltration activity of immature and mature dendritic cells: 10 ng/ml added, FIG. 8. It is filed as cell-based, human. On the procedure:
Peripheral blood mononuclear cells (PBMCs) from healthy subjects were separated by Ficoll-Paque density gradient centrifugation. Peripheral blood mononuclear cells were dispersed at a cell density of 2×10^6 cells/ml in complete RPMI-1640e medium, and the resulting suspension is incubated at 37° C. for one hour to give adhesive cells. Nonadhesive cells were removed by washing five times with RPMI-1640 medium. The adhesive cells were cultured in RPMI medium containing 1000 U/ml GM-CSF and 1000 U/ml IL-4, 10% FBS, 25 mM HEPES, 2 mM L-glutamic acid, 50 μM 2-ME, 1% nonessential amino acids, and 2 mM sodium pyruvate under hypoxic conditions (oxygen concentration was 1%; herein, hypoxic conditions refer to conditions where the oxygen concentration is 1%) or normoxic conditions (oxygen concentration was 20%; herein, normoxic conditions refer to conditions where the oxygen concentration is 20%) at 37° C. under an 5% carbon dioxide atmosphere for six days with half of the medium being changed every day. On day six, the cells were collected and divided into two groups. The first group was cultured in a medium containing IL-4 and GM-CSF for one day, and then used as immature dendritic cells. […]
The infiltration activity of dendritic cells was measured by the Transwell Chamber method using the following procedure: a Matrigel was immobilized onto a membrane that separates a top chamber and a bottom chamber; after washing, dendritic cells were placed in the top chamber; 100 ng/ml recombinant human RANTES was placed in the bottom chamber when immature dendritic cells were used, or 100 ng/ml recombinant human MCP-3 was placed in the bottom chamber when mature dendritic cells were used; cells migrating into the bottom chamber were counted. […]
The mature dendritic cells obtained in Example 1 were cultured in the culture medium supplemented with 1 μM all-trans retinoic acid to induce their differentiation. Then, the infiltration activity of dendritic cells was determined by the same procedure described in Example 7.

`CC1=C(/C=C/C(C)=C/C=C/C(C)=C/C(=O)O)C(C)(C)CCC1` [all-trans retinoic acid]: the “MMP-9 mRNA level in the cells” value in assay [1] is given as “increased”. Besides, the “infiltration activity of dendritic cells” value in assay [2] (mature dendritic cells differentiated under hypoxic conditions, 1 μM in culture medium, FIG. 10) is “increased”.
As to “TIMP-1 protein: TIMP-1 is an MMP-9-specific inhibitor; protein added at 10 ng/ml”, the “infiltration activity of immature and mature dendritic cells” value in assay [2] (cells differentiated under hypoxic conditions) was “not changed”; in assay [2] (cells differentiated under normoxic conditions), “reduced”.
